Assay results taken from patent US20250177564A1, “GENE THERAPY FOR THE TREATMENT OF HT1” (LogicBio Therapeutics, Inc., priority 2021, published 2025).

How the values were obtained:
Fah−/− mice [1] = experiment: Disease progression and resolution with and without NTBC (NTBC cycling); format: in vivo, mouse
Description: Fah−/− mice were kept on 8 mg/L of NTBC-drinking water prior to the initiation of the study at 7 weeks of age. Animals were then supplied with regular water (NTBC off) for 7 days, followed by NTBC-containing water at 8 mg/L for another 7 days. The above cycling was repeated for another 14 days. During the study, animals were monitored for daily body weight. Submandibular blood and urine were sampled periodically, and serum and plasma were collected and stored at −80° C. until further analysis. At sacrifice, blood was collected for plasma via cardiac puncture. For liver dissection, one lobe of liver was fixed by 10% formalin, and the remaining was snap-frozen and stored at −80° C. The following day, the formalin-fixed liver was transferred to 70% ethanol for paraffin embedding.

Fah−/− mice [2] = experiment: Compatibility between NTBC (standard of care) and GENERIDE, NTBC titration; format: in vivo, mouse; conditions: high doses of NTBC
Description: Four-week-old Fah−/− animals were treated with rAAV.DJ-GR-mFAH at dosages of 1e14 vg/kg via retro-orbital sinus under anesthesia. All mice were kept on 8 mg/L of NTBC prior to the initiation of the study until 4 weeks post dosing, and then NTBC were either maintained at 8 mg/L (control) or titrated down to 3 mg/L, 0.8 mg/L, or 0.3 mg/L for 8 weeks. During the study, animals were sampled periodically by submandibular bleed and plasma was collected and stored at −80° C. until further analysis. At sacrifices, blood was collected for plasma via cardiac puncture. For liver dissection, one lobe of liver was fixed by 10% formalin, and the remaining was snap-frozen and stored at −80° C. Next day, formalin-fixed liver was transferred to 70% ethanol for paraffin embedding.
Viral vectors comprising an AAV-DJ viral capsid, mouse FAH (mFAH) transgene, P2A sequence, and flanking 5′ homology arm 1000 nucleotides (nt) in length and a 3′ homology arm 1600 nt in length homology arms were constructed. Homology arms were designed for complementarity to a mouse genomic albumin target integration site. Viral vectors herein described were administered at a dosage of 1e14 vg/kg to […] groups (Groups 1, 2, 3, 4) of Fah−/− mice via intravenous injection at 4 weeks of age. […] Mice were assessed for circulating biomarkers (e.g., levels of ALB-2A) for up to 6 weeks post-NTBC titration (FIG. 4B).

HT1 patients = conditions: cited from earlier work

SMILES: O=C1CCCC(=O)C1C(=O)c1ccc(C(F)(F)F)cc1[N+](=O)[O-] [NTBC, 2-(2-nitro-4-trifluoromethylbenzoyl)-1,3cyclohexanedione]
- time to restore levels of disease biomarkers (SUAC) and liver synthetic function (aPTT, ALT, blood glucose) (Fah−/− mice [1]; NTBC 8 mg/L drinking water): less than 7 days
- time to abnormal levels of disease biomarkers (SUAC) and liver synthetic function upon withdrawal (Fah−/− mice [1]; NTBC withdrawal): less than 3 days
- effect on selective expansion of GENERIDE edited cells (hepatocytes) (Fah−/− mice [2]): prevent selective expansion
- risk of developing HCC, NTBC started after the neonatal period compared to patients treated as neonates (HT1 patients): 2-12 fold
